pIC50: −log10 of the molar value.

For orientation: pIC50 means −log10 of the IC50, conventionally taken in molar units.

One assay concerns HCN4 inward current (If). Kind of assay: If current recording in SAN cells. It counts as cell-based, mouse. Conditions: Ru360 dialysis. The protocol: (§1) SAN cells were placed in Tyrode's solution at 36±0.5° C. and were identified by their characteristic morphology (spindle or spider shape) and spontaneous activity. SAN cells were identified electrophysiologically by spontaneous action potentials with a slow depolarizing phase 4 and the hyperpolarization-activated current (If).^27 Spontaneous action potentials, If and ICa were recorded using the perforated (amphotericin B or β-escin in studies requiring dialysis of Ru360 and/or ATP) patch-clamp technique^28 on single SAN cells at 36±0.5° C. in Tyrode's solution. Intracellular Ca^2+ transients were recorded from single SAN cells using Fura-2 AM excited at 340 nm and 380 nm and emitted and 510 nm. Endogenous NADH from single SAN cells was measured by excitation at 350 nm and recording emitted light at 460 nm.^29 Mitochondrial Ca^2+ was measured at 535 nm from mt-pericam expressing SAN cells exited at 415 nm^20. Mitochondrial Ca^2+ entry was measured in cell membrane permeabilized cardiomyocytes isolated from DN-MCU transgenic, wild type mice and from HEK293 cells using Calcium green-5N^30.
Spontaneous action potentials (APs) and If were recorded using the perforated (amphotericin B or β-escin) patch-clamp technique^28 on single SAN cell at 36±0.5° C. in Tyrode's solution (0.5 mM BaCl2 was added to the bath solution when recording If^32). […]

Assay [1] relates to Ca2+ uptake into mitochondria. The following applies: in vitro; read-out: IC50, block of Ca2+ uptake into mitochondria in vitro; cited from earlier work.
Assay [2] deals with T1, mitochondrial calcium uniporter (MCU) (Homo sapiens, UniProt Q8NE86).
T1 construct: We measured mitochondrial Ca^2+ uptake using permeabilized HEK cells; endogenous in cells; host or cells: HEK293 cells, saponin-permeabilized
T1 sequence (Q8NE86 51-351): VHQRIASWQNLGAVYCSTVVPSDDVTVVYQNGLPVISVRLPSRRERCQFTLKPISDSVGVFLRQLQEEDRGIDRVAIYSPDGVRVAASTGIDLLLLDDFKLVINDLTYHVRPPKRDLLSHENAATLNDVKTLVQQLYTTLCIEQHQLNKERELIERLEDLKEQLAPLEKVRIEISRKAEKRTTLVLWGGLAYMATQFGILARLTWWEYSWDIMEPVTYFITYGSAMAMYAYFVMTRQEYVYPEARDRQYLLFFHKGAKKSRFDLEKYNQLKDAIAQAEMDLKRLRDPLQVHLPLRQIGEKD
T1 sequence (Q9H4I9 48-107 partner limits assumed): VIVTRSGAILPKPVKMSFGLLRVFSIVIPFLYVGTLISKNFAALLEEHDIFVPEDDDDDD
Briefly: Calcium green mitochondrial Ca2+ uptake assay in permeabilized HEK cells. The assay is classed as cell-based. The following applies: Ru360 10 μM or DN-MCU adenovirus (FIG. 6). The protocol: as §1
We measured mitochondrial Ca^2+ uptake using permeabilized HEK cells as previously described^30,40. […] Fluorescence was measured using a Tecan plate reader. […] Fluorescence intensity was measured from 50,000 […]/well. […]

For the substance (μ)[(HCO2)(NH3)4Ru]2OCl3) [Ru360], in the assay on HCN4 inward current (If), the “If responses to ISO” value is reported as “not reduced”. The pIC50 in assay [1] is 9.74. The “Mitochondrial Ca2+ entry” value in assay [2] was “similarly effective at preventing”.

These data come from patent publication US20160095837A1, “MODULATION OF MITOCHONDRIAL CALCIUM UNIPORTER ACTIVITY FOR TREATING AND PREVENTING ARRHYTHMIAS” (priority 2014, published 2016).
